Where a name gives a salt, the structure may show the parent alone.
Assay: Solubility of ecabet sodium in aqueous solution
Assay type: physicochemical
Details: pH less than pH 7

solubility in an aqueous solution: low
SMILES: CC(C)c1cc2c(cc1S(=O)(=O)O)[C@@]1(C)CCC[C@@](C)(C(=O)O)[C@@H]1CC2 [ecabet sodium, (+)-(1R,4aS,10aR)-1,2,3,4,4a,9,10,10a-octahydro-1,4a-dimethyl-7-(1-methylethyl)-6-sulfo-1-phenanthrencarboxylic acid 6-sodium salt pentahydrate]

— patent publication US20040259905A1, “Aqueous ecabet sodium solution preparation” (priority 2001, published 2004)
